Source: publication PMC6092189 (Nature structural & molecular biology, 2018)

Molecular target: human β-cardiac myosin (Homo sapiens, UniProt P12883)
Assay: single-molecule harmonic force spectroscopy dose titration
Type: binding

Sequence of human β-cardiac myosin (P12883 1-808): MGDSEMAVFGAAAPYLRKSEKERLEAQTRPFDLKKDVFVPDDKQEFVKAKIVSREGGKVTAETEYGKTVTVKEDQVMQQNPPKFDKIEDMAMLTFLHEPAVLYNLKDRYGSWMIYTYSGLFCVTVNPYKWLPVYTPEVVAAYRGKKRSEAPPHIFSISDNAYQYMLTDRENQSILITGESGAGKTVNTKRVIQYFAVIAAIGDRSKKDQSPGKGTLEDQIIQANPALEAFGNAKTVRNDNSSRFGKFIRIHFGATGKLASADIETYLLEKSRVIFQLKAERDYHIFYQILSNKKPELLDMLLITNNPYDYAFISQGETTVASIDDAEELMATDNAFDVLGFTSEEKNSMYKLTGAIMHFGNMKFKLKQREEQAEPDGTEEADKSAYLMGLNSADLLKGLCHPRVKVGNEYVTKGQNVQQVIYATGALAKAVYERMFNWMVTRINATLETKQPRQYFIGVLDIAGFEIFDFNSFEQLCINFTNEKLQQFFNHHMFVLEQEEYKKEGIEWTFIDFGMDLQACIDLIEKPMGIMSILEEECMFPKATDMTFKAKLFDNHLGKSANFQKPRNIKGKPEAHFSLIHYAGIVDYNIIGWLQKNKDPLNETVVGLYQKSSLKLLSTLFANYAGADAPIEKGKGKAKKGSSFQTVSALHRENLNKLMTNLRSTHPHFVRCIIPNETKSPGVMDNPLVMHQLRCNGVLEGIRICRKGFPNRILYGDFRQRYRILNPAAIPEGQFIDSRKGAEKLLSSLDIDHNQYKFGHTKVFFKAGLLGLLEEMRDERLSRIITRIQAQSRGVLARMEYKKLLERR
Sequence of human β-cardiac myosin (P08590 2-195 partner): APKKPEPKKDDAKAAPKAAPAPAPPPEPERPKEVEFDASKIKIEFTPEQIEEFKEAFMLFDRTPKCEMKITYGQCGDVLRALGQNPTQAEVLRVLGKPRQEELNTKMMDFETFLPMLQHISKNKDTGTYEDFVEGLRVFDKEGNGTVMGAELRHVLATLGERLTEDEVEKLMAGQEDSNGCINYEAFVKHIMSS

For `COC(=O)N1CCN(Cc2cccc(NC(=O)Nc3ccc(C)nc3)c2F)CC1` [OM, omecamtiv mecarbil], the Kd was 310 ± 50 nM.
